This note sets out measurements from ChEMBL document CHEMBL1201862, “PubChem BioAssay data set” (2004).

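1) Cells in 96-well plates. 2) Compound, 48 h, 5 concentrations. 3) Linear interpolation between surrounding doses. 4) Unreached endpoint = highest concentration. Abbreviation: GI50, concentration required for 50% inhibition of growth.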 Active and inactive are the calls of the source. No stated cut-off is given here; in the data, active = GI50 up to about 1.1 µM and inactive = higher.

Holding throughout (assay): inhibition of tumour cell growth, NCI panel, 48 h
For test [1], the system named is NCI-H522.
The test system of test [2] is UACC-62.
Test [3] concerns SF-539.
For test [4], the system named is SK-MEL-28.
Test [5] concerns DU-145.
For test [6], the system named is OVCAR-8.
Test [7] has as its system SNB-19.
Test [8] concerns SK-MEL-5.
Test [9] has as its system NCI-H460.
The test system of test [10] is U-251.
The test system of test [11] is SF-268.
Test [12] has as its system HCT-116.
The test system of test [13] is NCI/ADR-RES.
For test [14], the system named is EKVX.
In test [15] the test system is UACC-257.
The subject of test [16] is K562.
The test system of test [17] is SN12C.
Test [18] deals with SW-620.
Test [19] concerns OVCAR-5.
The subject of test [20] is BT-549.

Regarding `O=C(O)CCCSc1nc2ccccc2s1`, the GI50 in test [1], in test [2], in [3], in test [4], in test [5] and in test [6] was > 100 µM (inactive) each time. Also, the GI50 in [7], in [8], in test [9], in [10], in [11] and in test [12] was > 100 µM (inactive) each time. Also, the GI50 in test [13], in [14], in test [15], in test [16], in [17] and in test [18] was > 100 µM (inactive) each time. The GI50 in test [19] and in test [20] was > 100 µM (inactive) in each case.

For `CC(=O)c1c(C)[n+]([O-])c2cc(Cl)c(Cl)cc2[n+]1[O-]`, the GI50 is 12.6 µM (inactive) in [1]; 18.4 µM (inactive) in test [2]; 24.7 µM (inactive) in [3]; 29.8 µM (inactive) in test [4]; 23.1 µM (inactive) in test [5]; 14.2 µM (inactive) in [6]. Further, the GI50 in [7] was 30.8 µM (inactive); in test [8], 11.6 µM (inactive); in test [9] it was 12 µM (inactive); in test [10] it was 21.8 µM (inactive); in [11], 28.3 µM (inactive); in test [12], 15.6 µM (inactive). Further, the GI50 was 16.7 µM (inactive) in [13]; 28.6 µM (inactive) in test [14]; 17.6 µM (inactive) in [15]; 19.4 µM (inactive) in test [16]; 20.2 µM (inactive) in [17]; 17.7 µM (inactive) in test [18]. In addition, the GI50 was 38.3 µM (inactive) in [19] and 15.6 µM (inactive) in test [20].

Regarding `Clc1ccc(CCN(CCc2ccc(Cl)c(Cl)c2)CCN2CCCC2)cc1Cl`, the GI50 in test [1] was 1.64 µM (inactive); in test [2], 1.63 µM (inactive); in [3], 1.8 µM (inactive); in test [4] it was 1.77 µM (inactive); in test [5], 2.01 µM (inactive); in [6], 1.68 µM (inactive). Also, the GI50 in test [7] is 1.82 µM (inactive); in test [8], 1.81 µM (inactive); in test [9], 1.86 µM (inactive); in test [10] it was 1.6 µM (inactive); in test [11], 1.73 µM (inactive); in test [12] it was 1.69 µM (inactive). For the same compound, the GI50 is 1.75 µM (inactive) in [13]; 2.05 µM (inactive) in test [14]; 1.78 µM (inactive) in [15]; 2.25 µM (inactive) in test [16]; 1.87 µM (inactive) in test [17]; 1.72 µM (inactive) in test [18]. Moreover, the GI50 in test [19] was 1.6 µM (inactive); in test [20], 2.04 µM (inactive).

As to `O=C1OC(CN2CCN(c3ccccc3)CC2)CN1C(=S)Nc1ccccc1` (stereo not given), the GI50 in test [1], in test [2], in test [3], in test [4], in test [5] and in test [6] was > 100 µM (inactive) throughout. Also, the GI50 in [7] was > 100 µM (inactive); in test [8], > 100 µM (inactive); in test [9], 23.8 µM (inactive); in [10], > 100 µM (inactive); in test [11], > 100 µM (inactive); in test [12], > 100 µM (inactive). Also, the GI50 in [13] is > 100 µM (inactive); in test [14] it was > 100 µM (inactive); in [15], > 100 µM (inactive); in test [16], 61.4 µM (inactive); in [17], > 100 µM (inactive); in [18], > 100 µM (inactive). Moreover, the GI50 in test [19] and in test [20] was > 100 µM (inactive) throughout.

Take `Fc1ccccc1/N=c1\oc2ccc(Br)cc2cc1-c1nc2ccccc2[nH]1`: the GI50 in test [1] is 1.75 µM (inactive); in test [2], 12.8 µM (inactive); in test [3], 1.87 µM (inactive); in test [4] it was 14.5 µM (inactive); in test [5], 17.1 µM (inactive); in test [6], 9.23 µM (inactive). Also, the GI50 in [7] was 4.26 µM (inactive); in test [8], 8.49 µM (inactive); in [9] it was 15 µM (inactive); in test [10] it was 6 µM (inactive); in test [11], 0.522 µM (active); in test [12] it was 8.61 µM (inactive). For the same compound, the GI50 is 10 µM (inactive) in test [13]; 9.29 µM (inactive) in test [14]; > 19.8 µM (inactive) in [15]; > 25.6 µM (inactive) in [16]; 16.6 µM (inactive) in test [17]; > 21.9 µM (inactive) in [18]. Besides, the GI50 in test [19] was 34.8 µM (inactive); in test [20] it was 7.93 µM (inactive).

For `O=C(Nc1nnc(-c2ccc(Cl)cc2)o1)C(SC(=S)N1CCCCC1)c1ccccc1` (stereo not given), the GI50 was 17.6 µM (inactive) in [1]; 14.2 µM (inactive) in [2]; 30 µM (inactive) in test [3]; 18.1 µM (inactive) in [4]; 25.7 µM (inactive) in [5]; 22.1 µM (inactive) in test [6]. Moreover, the GI50 is 20.5 µM (inactive) in [7]; 15.7 µM (inactive) in [8]; 7.6 µM (inactive) in test [9]; 13 µM (inactive) in [10]; 6.5 µM (inactive) in test [11]; 12.7 µM (inactive) in [12]. Also, the GI50 in [13] was 4.84 µM (inactive); in [14], 20.7 µM (inactive); in test [15], 21.7 µM (inactive); in test [16] it was 11.6 µM (inactive); in test [17] it was 12.5 µM (inactive); in [18], 33.3 µM (inactive). In addition, the GI50 was 21.5 µM (inactive) in test [19] and 17.6 µM (inactive) in test [20].

In the case of `CCOC(=O)C(O)Cc1cnc2ccccc2n1` (stereo not given), the GI50 in test [1] was 79.3 µM (inactive); in test [2], > 100 µM (inactive); in test [3] it was > 100 µM (inactive); in [4], > 100 µM (inactive); in test [5], > 100 µM (inactive); in test [6] it was > 100 µM (inactive). The GI50 is > 100 µM (inactive) in test [7]; > 100 µM (inactive) in test [8]; 92.3 µM (inactive) in [9]; > 100 µM (inactive) in test [10]; > 100 µM (inactive) in test [11]; > 100 µM (inactive) in test [12]. In addition, the GI50 was > 100 µM (inactive) in [13]; 73.5 µM (inactive) in [14]; > 100 µM (inactive) in test [15]; > 100 µM (inactive) in test [16]; > 100 µM (inactive) in test [17]; > 100 µM (inactive) in test [18]. Besides, the GI50 in test [19] and in [20] was > 100 µM (inactive) each time.

In the case of `O=[N+]([O-])c1cccc2nc3ccccc3c(NCCC[N+]3([O-])CCOCC3)c12`, the GI50 in test [1] was 0.0631 µM (active); in test [2], 0.154 µM (active); in [3], 0.275 µM (active); in test [4], 0.29 µM (active); in test [5], 0.206 µM (active); in test [6], 0.21 µM (active). Also, the GI50 was 0.28 µM (active) in test [7]; 0.0782 µM (active) in test [8]; 0.0942 µM (active) in test [9]; 0.209 µM (active) in test [10]; 0.164 µM (active) in test [11]; 0.0948 µM (active) in test [12]. Also, the GI50 in test [13] was 11.4 µM (inactive); in test [14], 0.177 µM (active); in [15], 0.351 µM (active); in test [16], 0.223 µM (active); in test [17], 0.171 µM (active); in test [18] it was 0.131 µM (active). In addition, the GI50 is 0.327 µM (active) in [19] and 0.373 µM (active) in test [20].

With `O=c1/c(=C/c2ccc([N+](=O)[O-])o2)sc2n1[C@@H](c1ccc3c(c1)OCO3)C=C(c1cc(F)c(Cl)cc1Cl)N=2`, the GI50 in test [1] is 25.8 µM (inactive); in [2] it was 15.9 µM (inactive); in [3], 23.8 µM (inactive); in test [4], 22.3 µM (inactive); in test [5] it was 21.6 µM (inactive); in test [6], 11.9 µM (inactive). Besides, the GI50 in [7] is 20.8 µM (inactive); in [8], 10.3 µM (inactive); in test [9] it was 17.8 µM (inactive); in test [10], 19.9 µM (inactive); in test [11] it was 28.7 µM (inactive); in [12], 5.11 µM (inactive). Further, the GI50 in test [13] is 34.4 µM (inactive); in test [14] it was 16.6 µM (inactive); in test [15], 17.2 µM (inactive); in test [16] it was 5.09 µM (inactive); in [17] it was 18 µM (inactive); in test [18], 5.42 µM (inactive). In addition, the GI50 in test [19] was 21.7 µM (inactive); in test [20] it was 16.8 µM (inactive).

Regarding `CN(C)CCNc1ccc2ncnc3c2c1C(=O)c1ccccc1-3`, the GI50 was 0.232 µM (active) in test [1]; 0.757 µM (active) in [2]; 0.667 µM (active) in test [3]; 2.33 µM (inactive) in test [4]; 0.476 µM (active) in [5]; 0.466 µM (active) in test [6]. For the same compound, the GI50 in test [7] was 1.02 µM (active); in test [8], 0.759 µM (active); in test [9] it was 0.443 µM (active); in test [10] it was 0.49 µM (active); in [11] it was 0.513 µM (active); in test [12], 0.0676 µM (active). Further, the GI50 in test [13] is 0.357 µM (active); in [14] it was 0.343 µM (active); in test [15], 2.09 µM (inactive); in test [16], 0.221 µM (active); in test [17] it was 0.332 µM (active); in test [18] it was 0.129 µM (active). In addition, the figures for the GI50 in test [19] and in test [20] were 0.488 µM (active) and 5.32 µM (inactive), respectively.
